{"source": "paper PMC8264504", "about": "“Identification of Koumine as a Translocator Protein 18 kDa Positive Allosteric Modulator for the Treatment of Inflammatory and Neuropathic Pain” (Frontiers in Pharmacology, 2021)", "key": {"[1]": {"system": "T98G human glioblastoma cells", "experiment": "Cell proliferation assay (BrdU ELISA)", "format": "cell-based", "method": "T98G cells were plated at 1 × 10^4 cells/well in 96-well plates. […] After 48 h of drug exposure, proliferation was indexed using a BrdU ELISA Kit (Roche Molecular Diagnostics) according to the manufacturer’s protocol, and absorption was measured at 370 nm (reference wavelength 492 nm)."}, "[2]": {"target": "T1, mouse TSPO recombinant protein (Mus musculus, UniProt P50637)", "T1 construct": "made in house; host or cells: Escherichia coli BL21(DE3) pLysS, pET15b vector", "experiment": "SPR multicycle kinetics, mouse TSPO in a lipid-free environment", "format": "binding", "conditions": "CM5 chip, anti-His capture, read-out: affinity to mouse TSPO", "method": "(§1) Cells of the BL21(DE3) pLysS Escherichia coli strain were transformed with the pET15b vector, from which the expression of mouse TSPO recombinant protein was induced by 1 mM isopropyl-1-thiol-β-D-galactopyranoside as previously described ([Robert and Lacapère, 2010]; [Senicourt et al., 2017]). Cells were harvested and resuspended in lysis buffer (150 mM NaCl and 50 mM HEPES-Na, pH 7.8) with the addition of 1 mg/ml lysozyme and sonicated thoroughly. The lysate was centrifuged at 15,000 g at 4°C for 20 min to pellet the insoluble inclusion bodies. The final pellet of inclusion bodies was solubilized in binding buffer (150 mM NaCl, 50 mM HEPES-Na, 1% SDS (wt/vol), pH 7.8) and was purified by the Ni-NTA gravity flow column.\n(§2) SPR analyses were performed at 25°C with a Biacore T200 instrument. For proteoliposomes and liposomes (reference), they were immobilized on a series S L1 sensor chips. It is possible that the repeated regeneration steps in the multicycle kinetics process impairs the activity of TSPO proteoliposomes, thus we were unable to use multicycle kinetics to effectively determine the affinity of TSPO and its ligands. Therefore, the single cycle kinetics, which assumes to be as robust as the classical multicycle kinetics for measuring affinity, was used. Kinetic rate constants for the various analytes were determined using single cycle protocols where five serial 2-fold dilutions of the analytes were injected for 180 s without intervening regeneration, followed by a 300 s dissociation phase after the last injection. Interactions were measured at 30 μl/min. PBS, with addition of 1% DMSO (pH 7.4), was used as running buffer. Three consecutive 1 min injections with 10 μl/min of glycine HCl 3.0 at the end of each single-cycle kinetics regenerated the chip. For mouse TSPO in a lipid-free environment, affinity was measured according to established methods with minor modifications ([Zhang et al., 2015]). Briefly, HBS-EP buffer was used as the running buffer. […]"}, "[3]": {"target": "T2, mouse TSPO recombinant protein (TSPO proteoliposomes) (Mus musculus, UniProt P50637)", "T2 construct": "His tag; made in house; host or cells: Escherichia coli BL21(DE3) pLysS, pET15b vector", "experiment": "SPR single-cycle kinetics on TSPO proteoliposomes", "format": "binding", "method": "as §1\nProteoliposomes composed of DMPC/DMPE (9:1) and TSPO in a 5:1 (wt/wt) ratio were prepared using a previously described method ([Ostuni et al., 2010]). Liposomes composed of DMPC/DMPE (9:1) were prepared as published previously ([Hatty et al., 2014]). A few milligrams of DMPC and DMPE were weighed into a round-bottom glass flask, and chloroform and methanol were added to dissolve them. A thin lipid film was prepared by a rotary evaporator and dried under vacuum for at least 3 h to remove all traces of chloroform and methanol. The dry lipid film was resuspended in PBS buffer (10 mM phosphate buffer, 2.7 mM KCl, 137 mM NaCl) to a concentration of 1 mg/ml, hydrated for 2 h at 45–55°C, and finally sonicated to produce small unilamellar vesicles. The suspension of small unilamellar vesicles was then kept at 45°C for use on the same day. The sizes of proteoliposomes and liposomes were determined by dynamic light scattering using Nicomp 380 Z3000 instrument (Parficle Sizing Systems, America).\nas §2, with “Three consecutive 1 min injections with 10 μl/min of glycine HCl 3.0 at the end of each single-cycle kinetics regenerated the chip.” left out, “2015]).” for “2015]). Briefly, HBS-EP buffer was used as the running buffer.”"}, "[4]": {"system": "TSPO from the rat cerebral cortex", "design": "method as in Jin, 2014", "conditions": "previous competitive binding assay; ref Jin, 2014; cited from earlier work"}, "[5]": {"system": "rat C6 glioma cells", "experiment": "Pregnenolone production", "format": "cell-based", "conditions": "for EC50: read-out: EC50, pregnenolone production"}, "[6]": {"system": "rat model of CCI", "experiment": "Chronic constriction injury (CCI) model, MWT", "format": "in vivo", "from_the_text": "The rat CCI model of neuropathic pain was produced according to the method described by Bennett and Xie ([Bennett and Xie, 1988]). Adult male SD rats were anesthetized by isoflurane delivered by using the anesthetic machine. The right common sciatic nerve was isolated at the mid-thigh level and loosely ligated using four chromic gut (4–0) ties separated by intervals of 1 mm. For sham surgeries, the right sciatic nerve was exposed using the same procedure, but the nerve was not ligated. On the 9th day after surgery, Ro5-4864 or vehicle (5% DMSO) was administered i. p. 50 min before the measurement of mechanical allodynia, and koumine was administered s. c. 60 min before the measurement of mechanical allodynia. To determine whether koumine potentiated the analgesic effects of Ro5-4864, koumine (0.28 mg/kg, s. c.) or vehicle was injected 10 min before Ro5-4864 (0.0625–1.0 mg/kg, i. p.) injection on day 9 after CCI surgery, and the MWT was determined 50 min after the last injection. Animals were randomized for treatment and behavioral test were performed in a blinded manner. Mechanical allodynia was measured using the procedures described below. Only rats with mechanical withdrawal threshold scores (calculated by CCI ipsilateral paw mechanical withdrawal threshold/contralateral paw mechanical withdrawal threshold) on day 8 after CCI surgery >0.75 were used in the study.\nMechanical allodynia was measured using a commercially available electronic von Frey apparatus (Model 2,390; IITC Life Science Inc., Woodland Hills, CA) as described by Mitrirattanakul ([Mitrirattanakul et al., 2006]) with minor modifications. Rats were placed in a Plexiglas box on a steel mesh floor, and analyses were performed using an electronic von Frey apparatus. Stimulation was applied to the center of the hind paw in an upward motion of the von Frey filament until foot withdrawal occurred, and the withdrawal threshold was automatically recorded. The maximum strength of the filament used for von Frey testing was 55 g. The procedure was repeated three times at approximately 5 min intervals for each hind paw, and the MWT was calculated as the mean of the three latencies."}}, "note": "Read-outs that look alike come from different tables or passages of the source.", "data": [{"compound": "C=C[C@@]12CN(C)[C@H]3C[C@]14C(=Nc1ccccc14)[C@H]1C[C@@H]2[C@@H]3CO1", "note": "[koumine]", "values": [{"measurement": "shift of PK11195 concentration-response curve", "setting": "[1]; 316.3 μM koumine", "value": "produced a leftward shift in the potency"}, {"measurement": "shift of Ro5-4864 concentration-response curve", "setting": "[1]; 400 μM koumine", "value": "produced a leftward shift in the potency"}, {"measurement": "cell proliferation", "setting": "[1]; koumine on its own at 1–600 μM", "value": "did not affect"}, {"measurement": "modulation of inhibition of proliferation", "setting": "[1]; koumine with an EC20 concentration of PK11195 (∼75 μM)", "value": "significantly increased the inhibition of proliferation"}, {"measurement": "modulation of inhibition of proliferation", "setting": "[1]; koumine with an EC20 concentration of Ro5-4864 (∼23 μM)", "value": "significantly increased the inhibition of proliferation"}, {"measurement": "Kd", "setting": "[2]", "value": "97.4 ± 1.76", "unit": "µM"}, {"measurement": "Kd", "setting": "[3]", "value": "0.00086 ± 7e-05", "unit": "µM"}, {"measurement": "effect on binding of 3H-PK11195 with TSPO", "setting": "[4]", "value": "significantly increased the binding"}, {"measurement": "EC50", "setting": "[5]; Rattus norvegicus, C6 glioma, 2 h", "value": 270, "unit": "µM"}, {"measurement": "Emax", "setting": "[5]; Rattus norvegicus, C6 glioma, 2 h, read-out: Emax, pregnenolone production", "value": 33, "unit": "%"}, {"measurement": "modulation of pregnenolone production activity", "setting": "[5]; koumine with an EC20 concentration of PK11195 (∼27 μM)", "value": "did not significantly increase"}, {"measurement": "modulation of pregnenolone production activity", "setting": "[5]; koumine with an EC20 concentration of Ro5-4864 (∼11 μM)", "value": "did not significantly increase"}, {"measurement": "modulation of Ro5-4864-mediated antinociceptive activity (MWT)", "setting": "[6]; 0.28 mg/kg koumine s.c. 10 min before 0.0625–0.5 mg/kg Ro5-4864 i.p., day 9", "value": "significantly augmented"}, {"measurement": "notable antinociceptive effect on CCI-induced mechanical allodynia (MWT)", "setting": "[6]; koumine alone 0.28 mg/kg s.c., day 9", "value": "not"}, {"measurement": "CCI-induced mechanical allodynia (MWT)", "setting": "[6]; koumine alone 1.4 and 7.0 mg/kg s.c., day 9", "value": "notable antinociceptive effects"}]}, {"compound": "CN1C(=O)CN=C(c2ccc(Cl)cc2)c2cc(Cl)ccc21", "note": "[Ro5-4864, reference compound]", "values": [{"measurement": "EC20 concentration, inhibition of cell proliferation", "setting": "[1]; 48 h, BrdU", "value": "~23", "unit": "µM"}, {"measurement": "EC50", "setting": "[1]; 48 h, BrdU, read-out: EC50, inhibition of cell proliferation", "value": 66, "unit": "µM"}, {"measurement": "Kd", "setting": "[2]", "value": "170 ± 6.07", "unit": "µM"}, {"measurement": "Kd", "setting": "[3]; SPR single-cycle kinetics, TSPO proteoliposomes on L1 chip, 25°C, Langmuir 1:1 fit, read-out: KD", "value": "0.00206 ± 0.00011", "unit": "µM"}, {"measurement": "EC20 concentration, pregnenolone production", "setting": "[5]", "value": "~11", "unit": "µM"}, {"measurement": "increase in pregnenolone production", "setting": "[5]", "value": "approximately 50%"}, {"measurement": "EC50", "setting": "[5]", "value": 29, "unit": "µM"}, {"measurement": "CCI-induced mechanical allodynia (MWT)", "setting": "[6]; Ro5-4864 alone 0.0625–1.0 mg/kg i.p., 9 days after surgery", "value": "inhibited CCI-induced mechanical allodynia in a dose-dependent manner"}]}]}
